Results reported in patent EP1226131B1, “ISOXAZOLECARBOXAMIDE DERIVATIVES” (RECORDATI INDUSTRIA CHIMICA E FARMACEUTICA S.p.a., priority 1999, dated 2001).

What was measured:
[1] = system: diastolic blood pressure (DBP); assay: Effect on diastolic blood pressure in anaesthetised dogs, i.v. administration; assay type: in vivo; conditions: dog, dose inducing a 25% decrease in diastolic blood pressure, one value spanning c3 and c4
Procedure: (§1) The experiments were performed according to the method of Imagawa J. et al., J Pharmacol. Methods 22, 103-111 (1989), with substantial modifications, as follows: adult male beagle dogs, weighing 8-10 kg, were anaesthetised with pentobarbital sodium (30 mg/kg i.v. and 2 mg/kg/h i.v.), intubated and spontaneously ventilated with room air. In order to monitor systemic blood pressure (BP), a polyethylene (PE) catheter was introduced into the aortic arch through the left femoral artery. A collateral of the left femoral vein was cannulated for infusion of anaesthetic, and the right femoral vein was cannulated for administration of the compounds. For intraarterial (i.a.) injection of noradrenaline (NA), a PE catheter was introduced into the lower portion of the abdominal aorta via the right external iliac artery. Through such procedure, NA was selectively distributed to the lower urinary tract. A paramedian vertical suprapubic incision extending from the base of the pelvis to the mid-abdominal region was made and the bladder and the prostate were exposed. The bladder was manually emptied with a syringe. […] The distal end of the right or left branch of the nerve was placed on a bipolar platinum electrode. Prostatic urethral pressure was monitored with a Mikro-tip catheter (5F) introduced into the bladder via the external urethral meatus, and withdrawn until the pressure transducer was positioned in the prostatic region of the urethra. A ligature was secured between the neck of the bladder and urethra to isolate the response of the latter and to avoid any interaction with the bladder. Another ligature was put around the Mikro-tip catheter at the external meatus, to secure the catheter itself. The hypogastric nerve stimulation was made with a train of rectangular pulses of 10-15 V, 10-30 Hz, width 5 msec, 8 sec duration.
After a stabilising period following the surgical procedure (30 minutes), in which arterial and prostatic urethral pressure were continuously monitored as basal values, i.a. administration of NA and stimulation of the hypogastric nerve were alternately made at intervals of 10 minutes.
The dose of NA and the parameter of hypogastric nerve stimulation chosen were such as to produce an increase of at least 100% in urethral pressure. The test compounds were administered i.v. in a cumulative manner with intervals of 15-20 min between administrations. Both i.a. injections of NA and stimulations of the hypogastric nerve were repeated 5 minutes after every dosing of test compound with intervals of about 5 minutes between two stimulations. […]

α1a adrenergic receptor = target: T1, α1a adrenergic receptor (Homo sapiens, UniProt P35348); assay: Radioligand binding assay ([3H]prazosin) on cloned α1-adrenoceptor subtype, membranes of transfected cells
T1 sequence (P35348 1-466): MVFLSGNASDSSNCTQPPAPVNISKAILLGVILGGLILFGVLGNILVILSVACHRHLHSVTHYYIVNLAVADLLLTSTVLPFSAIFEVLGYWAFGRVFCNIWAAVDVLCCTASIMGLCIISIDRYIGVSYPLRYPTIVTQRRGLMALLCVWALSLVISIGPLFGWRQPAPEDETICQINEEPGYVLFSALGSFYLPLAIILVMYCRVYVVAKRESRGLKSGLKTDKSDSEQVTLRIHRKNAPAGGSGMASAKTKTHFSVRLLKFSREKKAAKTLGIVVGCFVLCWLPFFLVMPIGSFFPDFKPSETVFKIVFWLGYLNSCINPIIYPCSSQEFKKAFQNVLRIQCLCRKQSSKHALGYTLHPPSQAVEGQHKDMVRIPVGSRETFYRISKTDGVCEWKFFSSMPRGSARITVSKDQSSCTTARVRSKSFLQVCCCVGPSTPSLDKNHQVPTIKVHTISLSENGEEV
Procedure: (§2) Determination of affinity for cloned subtypes of the cloned α1-adrenoceptor was performed in membranes from cells transfected by electroporation with DNA expressing the genes encoding each α1-adrenoceptor subtype.
(§3) Non-specific binding was determined in the presence of 10 µM phentolamine. Incubation was stopped by addition of ice-cold Tris buffer and rapid filtration through 0.2%-polyethyleneimine pretreated Schleicher & Schuell GF52 filters. […] The homogenates were centrifuged at 40000 × g × 20 minutes and the membranes were resuspended in a small volume of ice-cold buffer containing Tris 5 mM and EDTA 5 mM (pH 7.4) and immediately frozen and stored at -70°C until use.
Data were expressed as mean of Ki.

[2] = system: urethral contractions (UP) induced by hypogastric-nerve stimulation (HYP); assay: Urethral contractions induced by hypogastric-nerve stimulation in anaesthetised dogs, i.v. administration; assay type: in vivo; conditions: Canis lupus familiaris, iv, dog, dose inhibiting by 50% urethral contractions induced by hypogastric-nerve stimulation, read-out: UP ID50 HYP
Procedure: as §1, with “Mikro-tip cathe[…])” for “Mikro-tip catheter (5F)”, “itself. […] Both i.a. injections of NA and stimulations of the” for “itself. The”, “nerve were repeated 5 minutes after every dosing of test compound” for “nerve stimulation was made”, “with intervals” for “with a train”, “of about” for “of rectangular pulses of 10-15 V, 10-30 Hz, width”, “5 minutes between two stimulations. […]” for “5 msec, 8 sec duration.”

α1L adrenoceptor = assay: Functional antagonism of noradrenaline-induced contractions of rabbit aorta pretreated with chloroethylclonidine; assay type: biochemical; conditions: functional affinity, NA-induced contractions
Procedure: Adult male New Zealand rabbits were sacrificed by cervical dislocation. The aorta was removed, placed in Krebs-Henseleit buffer and dissected free of adhering tissue.
Each antagonist concentration was tested using 2-3 aortic rings from different rabbits.
Dose ratios (i.e., the ratio between the concentrations of noradrenaline required to produce half-maximal response in the presence and in the absence of the test antagonist) were calculated at each concentration of the compounds.

[3] = system: urethral contractions (UP) induced by noradrenaline (NA); assay: Urethral contractions induced by noradrenaline injection in anaesthetised dogs, i.v. administration; assay type: in vivo; conditions: dog
Procedure: The experiments were performed according to the method of Imagawa J. et al., J Pharmacol. Methods 22, 103-111 (1989), with substantial modifications, as follows: adult male beagle dogs, weighing 8-10 kg, were anaesthetised with pentobarbital sodium (30 mg/kg i.v. and 2 mg/kg/h i.v.), intubated and spontaneously ventilated with room air. In order to monitor systemic blood pressure (BP), a polyethylene (PE) catheter was introduced into the aortic arch through the left femoral artery. A collateral of the left femoral vein was cannulated for infusion of anaesthetic, and the right femoral vein was cannulated for administration of the compounds. For intraarterial (i.a.) injection of noradrenaline (NA), a PE catheter was introduced into the lower portion of the abdominal aorta via the right external iliac artery. Through such procedure, NA was selectively distributed to the lower urinary tract. A paramedian vertical suprapubic incision extending from the base of the pelvis to the mid-abdominal region was made and the bladder and the prostate were exposed. The bladder was manually emptied with a syringe. […] The distal end of the right or left branch of the nerve was placed on a bipolar platinum electrode. Prostatic urethral pressure was monitored with a Mikro-tip cathe[…]) introduced into the bladder via the external urethral meatus, and withdrawn until the pressure transducer was positioned in the prostatic region of the urethra. A ligature was secured between the neck of the bladder and urethra to isolate the response of the latter and to avoid any interaction with the bladder. Another ligature was put around the Mikro-tip catheter at the external meatus, to secure the catheter itself. […] Both i.a. injections of NA and stimulations of the hypogastric nerve were repeated 5 minutes after every dosing of test compound with intervals of about 5 minutes between two stimulations. In order to compare the effects of the administered compound, dose/response curves were constructed by computing, at the peak effect, the percent decrease in diastolic blood pressure and the percent inhibition of the increase in urethral pressure induced by both types of stimulation used.

[4] = target: T2, recombinant α1d-adrenoceptor (Homo sapiens, UniProt P25100); assay: Radioligand binding assay ([3H]prazosin) on cloned α1-adrenoceptor subtype, membranes of transfected cells
T2 sequence (P25100 1-572): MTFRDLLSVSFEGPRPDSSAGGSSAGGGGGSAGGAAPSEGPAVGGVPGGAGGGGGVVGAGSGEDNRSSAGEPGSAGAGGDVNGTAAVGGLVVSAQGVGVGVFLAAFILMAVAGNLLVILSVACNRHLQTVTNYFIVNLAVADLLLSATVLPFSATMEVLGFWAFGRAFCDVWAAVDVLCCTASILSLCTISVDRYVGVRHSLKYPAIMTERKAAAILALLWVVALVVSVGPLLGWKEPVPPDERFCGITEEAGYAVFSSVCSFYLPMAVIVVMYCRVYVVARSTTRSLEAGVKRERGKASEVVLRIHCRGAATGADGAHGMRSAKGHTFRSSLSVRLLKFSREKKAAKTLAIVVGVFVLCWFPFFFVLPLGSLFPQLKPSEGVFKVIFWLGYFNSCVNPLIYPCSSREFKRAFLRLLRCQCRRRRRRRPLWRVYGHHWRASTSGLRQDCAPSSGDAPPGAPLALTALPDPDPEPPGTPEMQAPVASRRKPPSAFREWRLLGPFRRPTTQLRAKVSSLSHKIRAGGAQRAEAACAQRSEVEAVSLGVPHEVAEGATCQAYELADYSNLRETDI
Procedure: as §2, §3
Data were expressed as mean of Ki.

Ki (α1a adrenergic receptor): 0.066 nM
Ki [4]: 1.45 nM
SMILES: Cc1onc(-c2ccccc2)c1C(=O)NCCCN1CCN(c2ccccc2OCC(F)(F)F)CC1 [Example 3, 5-Methyl-3-phenyl-N-{3-[4-[2-(2,2,2-trifluoroethoxy)-phenyl]-1-piperazinyl]-propyl}isoxazole-4-carboxamide]
DBP ED25 [1]: 514.7 µg/kg
ED50 [2]: 2.4 µg/kg
pKb (α1L adrenoceptor): 8.47
ED50 ([3]; Canis lupus familiaris, iv, dose inhibiting by 50% urethral contractions induced by noradrenaline, read-out: UP ID50 NA): 1.3 µg/kg
R1 (DBP/NA) ([3]; ratio DBP ED25 / UP ID50 NA): 396
